What was measured:
[1] = Cytotoxicity against HUVEC cells assessed as inhibition of cell growth at 10 uM measured after 72 hrs by MTT assay; format: cell-based; conditions: human
[2] = tested on: HepG2; test: Antiproliferative activity against human HepG2 cells assessed as inhibition of cell growth at 10 uM measured after 72 hrs by MTT assay relative to control; format: functional
[3] = tested on: MCF7; test: Antiproliferative activity against human MCF7 cells assessed as inhibition of cell growth at 10 uM measured after 72 hrs by MTT assay relative to control; format: functional
[4] = tested on: MDA-MB-231; test: Antiproliferative activity against human MDA-MB-231 cells assessed as inhibition of cell growth measured after 72 hrs by MTT assay; format: functional, cell-based; conditions: MDA-MB-231, 72 h
[5] = tested on: A549; test: Antiproliferative activity against human A549 cells assessed as inhibition of cell growth at 10 uM measured after 72 hrs by MTT assay relative to control; format: functional
[6] = tested on: MDA-MB-231; test: Antiproliferative activity against human MDA-MB-231 cells assessed as inhibition of cell growth at 10 uM measured after 72 hrs by MTT assay relative to control; format: functional
[7] = tested on: HT-29; test: Antiproliferative activity against human HT-29 cells assessed as inhibition of cell growth at 10 uM measured after 72 hrs by MTT assay relative to control; format: functional
[8] = tested on: A549; test: Antiproliferative activity against human A549 cells assessed as inhibition of cell growth measured after 72 hrs by MTT assay; format: functional, cell-based; conditions: A549, 72 h

| SMILES | inhibition at 72 h, 10 µM [1] [%] | inhibition at 10 µM [2] [%] | inhibition at 10 µM [3] [%] | IC50 [4] [µM] | inhibition at 10 µM [5] [%] | inhibition at 10 µM [6] [%] | inhibition at 10 µM [7] [%] | IC50 [8] [µM] |
| --- | --- | --- | --- | --- | --- | --- | --- | --- |
| CC(C)(C)c1cc2c(O)c(c1)Cc1cc(C(C)(C)C)cc(c1OCCCCCC(=O)NCCCCCO)Cc1cc(C(C)(C)C)cc(c1O)Cc1cc(C(C)(C)C)cc(c1OCCCCCC(=O)NCCCCCO)C2 | < 0 | 21.9 | < 0 | 97.6 | 46.1 | 31.2 | 21.2 | > 100 |
| CC(Oc1c2cc(C(C)(C)C)cc1Cc1cc(C(C)(C)C)cc(c1O)Cc1cc(C(C)(C)C)cc(c1OC(C)C(=O)N(CCO)CCO)Cc1cc(C(C)(C)C)cc(c1O)C2)C(=O)N(CCO)CCO (stereo not given) | 57.2 | 93.8 | 96.2 | 1.63 | 91.2 | 91.3 | 65.7 | 3.75 |
| CC(C)(C)c1cc2c(O)c(c1)Cc1cc(C(C)(C)C)cc(c1OCCCCCC(=O)N(CCO)CCO)Cc1cc(C(C)(C)C)cc(c1O)Cc1cc(C(C)(C)C)cc(c1OCCCCCC(=O)N(CCO)CCO)C2 | < 0 | 17.3 | 1.44 | > 100 | 46.8 | 34.5 | 22.2 | > 100 |
| CCC(Oc1c2cc(C(C)(C)C)cc1Cc1cc(C(C)(C)C)cc(c1O)Cc1cc(C(C)(C)C)cc(c1OC(CC)C(=O)NCCCO)Cc1cc(C(C)(C)C)cc(c1O)C2)C(=O)NCCCO (stereo not given) | < 0 | 20.3 | < 0 | 0.85 | 80.2 | 80.1 | 41.5 | 0.96 |
| CC(Oc1c2cc(C(C)(C)C)cc1Cc1cc(C(C)(C)C)cc(c1O)Cc1cc(C(C)(C)C)cc(c1OC(C)C(=O)NCCCO)Cc1cc(C(C)(C)C)cc(c1O)C2)C(=O)NCCCO (stereo not given) | 48.2 | 69 | 82.5 | 1.31 | 91.2 | 90.1 | 58.4 | 1.76 |
| CCC(Oc1c2cc(C(C)(C)C)cc1Cc1cc(C(C)(C)C)cc(c1O)Cc1cc(C(C)(C)C)cc(c1OC(CC)C(=O)NCCCCCO)Cc1cc(C(C)(C)C)cc(c1O)C2)C(=O)NCCCCCO (stereo not given) | < 0 | 9.3 | < 0 | 1.36 | 52.7 | 63.7 | 26.3 | 3.78 |
| CC(C)(C)c1cc2c(O)c(c1)Cc1cc(C(C)(C)C)cc(c1OCCCC(=O)N(CCO)CCO)Cc1cc(C(C)(C)C)cc(c1O)Cc1cc(C(C)(C)C)cc(c1OCCCC(=O)N(CCO)CCO)C2 | < 0 | 62.8 | 60.1 | 5.81 | 88.1 | 80 | 61.5 | 3.81 |
| CC(C)(C)c1cc2c(O)c(c1)Cc1cc(C(C)(C)C)cc(c1OCCCC(=O)NCCO)Cc1cc(C(C)(C)C)cc(c1O)Cc1cc(C(C)(C)C)cc(c1OCCCC(=O)NCCO)C2 | 57 | 28.7 | 16.2 | 11.7 | 54.4 | 25.8 | 40.1 | 13.7 |
| CC(C)(C)c1cc2c(O)c(c1)Cc1cc(C(C)(C)C)cc(c1OCCCC(=O)NCCCCCO)Cc1cc(C(C)(C)C)cc(c1O)Cc1cc(C(C)(C)C)cc(c1OCCCC(=O)NCCCCCO)C2 | 5.8 | 25 | < 0 | 9.15 | 50.5 | 34.4 | 33.1 | 7.64 |
| CC(C)(C)c1cc2c(O)c(c1)Cc1cc(C(C)(C)C)cc(c1OCCCC(=O)NCCCO)Cc1cc(C(C)(C)C)cc(c1O)Cc1cc(C(C)(C)C)cc(c1OCCCC(=O)NCCCO)C2 | < 0 | 24.4 | < 0 | 17.9 | 56.4 | 29.5 | 35.3 | 10.3 |
| CC(C)(C)c1cc2c(O)c(c1)Cc1cc(C(C)(C)C)cc(c1OC/C=C/C(=O)NCCCO)Cc1cc(C(C)(C)C)cc(c1O)Cc1cc(C(C)(C)C)cc(c1OC/C=C/C(=O)NCCCO)C2 | 38.8 | 9.5 | 48.2 | 5.2 | 63.3 | 61.5 | 36.1 | 3.59 |
| CC(Oc1c2cc(C(C)(C)C)cc1Cc1cc(C(C)(C)C)cc(c1O)Cc1cc(C(C)(C)C)cc(c1OC(C)C(=O)NCCCCCO)Cc1cc(C(C)(C)C)cc(c1O)C2)C(=O)NCCCCCO (stereo not given) | 31.8 | 19.8 | < 0 | 3.26 | 86.8 | 89.3 | 49.6 | 2.98 |
| CC(C)(C)c1cc2c(O)c(c1)Cc1cc(C(C)(C)C)cc(c1OCCCCCC(=O)NCCCO)Cc1cc(C(C)(C)C)cc(c1O)Cc1cc(C(C)(C)C)cc(c1OCCCCCC(=O)NCCCO)C2 | < 0 | 9.3 | < 0 | 42.8 | 56.5 | 30.1 | 17.9 | > 100 |
| CC(C)(C)c1cc2c(O)c(c1)Cc1cc(C(C)(C)C)cc(c1OCCCCCC(=O)NCCO)Cc1cc(C(C)(C)C)cc(c1O)Cc1cc(C(C)(C)C)cc(c1OCCCCCC(=O)NCCO)C2 | < 0 | 22.6 | < 0 | 13 | 61.6 | 34.3 | 17.3 | > 100 |
| CC(C)(C)c1cc2c(O)c(c1)Cc1cc(C(C)(C)C)cc(c1OCC(=O)NCCO)Cc1cc(C(C)(C)C)cc(c1O)Cc1cc(C(C)(C)C)cc(c1OCC(=O)NCCO)C2 | 19.6 | 89.9 | 92.2 | 4.53 | 92.3 | 90.5 | 66.2 | 3.84 |
| CCC(Oc1c2cc(C(C)(C)C)cc1Cc1cc(C(C)(C)C)cc(c1O)Cc1cc(C(C)(C)C)cc(c1OC(CC)C(=O)NCCO)Cc1cc(C(C)(C)C)cc(c1O)C2)C(=O)NCCO (stereo not given) | 34.3 | 26.1 | < 0 | 0.92 | 68.7 | 79.6 | 32.1 | 2.22 |
| CC(C)(C)c1cc2c(O)c(c1)Cc1cc(C(C)(C)C)cc(c1OC/C=C/C(=O)NCCO)Cc1cc(C(C)(C)C)cc(c1O)Cc1cc(C(C)(C)C)cc(c1OC/C=C/C(=O)NCCO)C2 | 8.9 | 19.8 | 38 | 5.46 | 63.5 | 35 | 27.8 | 6.29 |
| CC(C)(C)c1cc2c(O)c(c1)Cc1cc(C(C)(C)C)cc(c1OC/C=C/C(=O)NCCCCCO)Cc1cc(C(C)(C)C)cc(c1O)Cc1cc(C(C)(C)C)cc(c1OC/C=C/C(=O)NCCCCCO)C2 | 23.8 | 11.8 | < 0 | 94.3 | 37.6 | 39.5 | 23.9 | > 100 |
| CC(Oc1c2cc(C(C)(C)C)cc1Cc1cc(C(C)(C)C)cc(c1O)Cc1cc(C(C)(C)C)cc(c1OC(C)C(=O)NCCO)Cc1cc(C(C)(C)C)cc(c1O)C2)C(=O)NCCO (stereo not given) | 35.7 | 67.9 | 76.8 | 1.18 | 91.8 | 89.2 | 47.3 | 2.5 |
| CC(C)(C)c1cc2c(O)c(c1)Cc1cc(C(C)(C)C)cc(c1OC/C=C/C(=O)N(CCO)CCO)Cc1cc(C(C)(C)C)cc(c1O)Cc1cc(C(C)(C)C)cc(c1OC/C=C/C(=O)N(CCO)CCO)C2 | < 0 | 41 | 80.2 | 6.77 | 82 | 58.8 | 39.8 | 7.04 |

Source: ChEMBL document CHEMBL4732096, “Design, synthesis and evaluation of calix[4]arene-based carbonyl amide derivatives with antitumor activities” (Eur J Med Chem, 2021)
